For two molecules, IC50 results are on record in patent US8975267B2, “Tricyclic pyrrolo derivatives, process for their preparation and their use as kinase inhibitors” (Nerviano Medical Sciences S.r.l., priority 2011, dated 2015).

Test [1] addresses MPS1 (Homo sapiens (Human), UniProt P33981). Kind of test: Biochemical assay for inhibitors of MPS1 kinase activity (trans-phosphorylation, Dowex). As to conditions: 15 microM ATP, 200 microM P38-βtide substrate, 5 nM MPS1. The procedure: Cloning, Expression and Purification of Recombinant MPS1 Full Length Protein.
MPS1 full length (corresponding to residues 2-857 of the full length sequence, see Swiss-Prot accession number P33981) was PCR amplified from the full-length human MPS1 gene present in house as clone pGEX4t_MPS1.
To get a fully activated enzyme, the protein was then subjected to auto-phosphorylation in presence of ATP 1 mM at 25° C. for 2 hours in kinase buffer (Hepes pH7.5 50 mM, MgCl2 2.5 mM, MnCl2 1 mM, DTT 1 mM, phosphatase inhibitors); ATP was then removed whit a desalting column.
Biochemical Assay for Inhibitors of MPS1 Kinase Activity
(§1) The inhibitory activity of putative kinase inhibitors and the potency of selected compounds were determined using a trans-phosphorylation assay.
(§2) Specific peptide or protein substrates are trans-phosphorylated by their specific ser-thr or tyr kinase in the presence of ATP traced with ^33P-γ-ATP, and in the presence of their own optimal buffer and cofactors.
At the end of the phosphorylation reaction, more than 98% unlabeled ATP and radioactive ATP is captured by an excess of the ion exchange dowex resin; the resin then settles down to the bottom of the reaction plate by gravity. Supernatant is subsequently withdrawn and transferred into a counting plate, then evaluated by β-counting.
The buffer for MPS1 assay was composed of HEPES 50 mM, at pH 7.5, with 2.5 mM MgCl2, 1 mM MnCl2, 1 mM DTT, 3 microM Na3VO4, 2 mM β-glycerophosphate and 0.2 mg/mL BSA.
The assay was run with a final concentration MPS1 of 5 nM, in the presence of 15 microM ATP and 1.5 nM ^33P-γ-ATP; the substrate was P38-βtide, used at 200 microM.
a) for percent inhibition studies (HTS), individual dilution plates at 1 mM are diluted at a 3× concentration (30 microM) in ddH2O (3% DMSO=final concentration) using a Beckman NX automated pipetting platform. The same instrument is used for distributing the diluted mother plates into the test plates. b) for IC50 determination (KSS platform), 100 microL of each compound at 1 mM in 100% DMSO are transferred from the original plate into the first column of another 96 well plate (A1 to G1); well H1 is left empty for the internal standard inhibitor, usually staurosporine.
An automated station for serial dilutions (Biomek FX, Beckman) is used for producing 1:3 dilutions in 100% DMSO, from line A1 to A10, and for all the seven compounds in the column. Moreover, 4-5 copies of daughter plates are prepared by reformatting 5 microL of this first set of 100% DMSO dilution plates into 384 deep well-plates: one copy of the daughter plates with the serial dilutions of test compounds will be thaw the day of the experiments, reconstituted at a 3× concentration with water and used in the IC50 determination assays. In a standard experiment, the highest concentration (3×) of all compounds is 30 microM, while the lowest one is 1.5 nM.
384-well plates, V bottom (test plates) are prepared with 5 microL of the compound dilution (3×) and then placed onto a PlateTrak 12 robotized station (Perkin Elmer; the robot has one 384-tips pipetting head for starting the assay plus one 96-tips head for dispensing the resin) together with one reservoir for the Enzyme mix (3×) and one for the ATP mix (3×).
At the start of the run, the robot aspirates 5 microL of ATP mix, makes an air gap inside the tips (2 microL) and aspirates 5 microL of MPS1 mix. The following dispensation into the plates allows the kinase reaction to start upon 3 cycles of mixing, done by the robot itself.
The robot incubates the plates for 60 minutes at room temperature, and then stops the reaction by pipetting 70 microL of dowex resin suspension into the reaction mix. Three cycles of mixing are done immediately after the addition of the resin.
Another mixing cycle is performed after all the plates are stopped, this time using normal tips: the plates are then allowed to rest for about one hour in order to maximize ATP capture. […]

The target in test [2] is PIM-1 (Homo sapiens (Human), UniProt P11309). Kind of test: Biochemical assay for inhibitors of PIM-1 kinase activity (trans-phosphorylation, Dowex). As to conditions: 200 microM ATP, 25 microM Aktide, 1 nM enzyme. The method, then:
Biochemical Assay for Inhibitors of PIM-1 Kinase Activity
as §1, §2
At the end of the phosphorylation reaction, more than 98% unlabeled ATP and radioactive ATP is captured by an excess of the ion exchange dowex resin; the resin then settles down to the bottom of the reaction plate by gravity.
Supernatant is subsequently withdrawn and transferred into a counting plate, then evaluated by β-counting.
The buffer for PIM-1 assay was composed of HEPES 50 mM, at pH 7.5, with 10 mM MgCl2, 1 mM DTT, 3 microM NaVO3, and 0.2 mg/ml BSA
Full-length human PIM-1 was expressed and purified as described in Bullock A N, et al., J. Biol. Chem. 2005, 280, 41675-82.
ATP concentration: 200 microM
Enzyme concentration: 1 nM
Substrate concentration Aktide (Chemical Abstract Service Registry Number 324029-01-8): 25 microM
For IC50 determination, test compounds are received as a 1 mM solution in 100% DMSO and distributed into 96-well plates: compounds are then plated into the first column of a new 96-well plate (A1 to G1), 100 microL/well.
An automated station (Biomek FX, Beckman) is used for serial dilutions, producing 1:3 dilutions in 100% DMSO, from line A1 to A10, for all the compounds in the column. Moreover, 4-5 copies of daughter plates are prepared by reformatting 5 microL of this first set of 100% DMSO dilution plates into 384-deep well plates: one copy of these serial dilution plates with the test compounds is thawed on the day of study, reconstituted at the working concentration (3-fold the final concentration) with 162 microL/well of water and used for IC50 determination assays. In a standard experiment, the highest concentration (3×) of compounds is typically 30 microM, while the lowest one is typically 1.5 nM.
Each 384-well plate generates at least one curve of the standard inhibitor staurosporine and reference wells (total enzyme activity vs. no enzymatic activity) for evaluation of Z′ and signal to background (S/B) ratio.
384-well plates, V bottom (test plates) are prepared with 5 microL of compound diluted as previously described (3×) and then placed onto a PlateTrak 12 robotized station (Perkin Elmer; the robot has one 384-tip pipetting head for assay start, plus one 96-tip head for dispensing resin) together with one reservoir for Enzyme mix (3×) and one for ATP mix (3×).
Data are analyzed by an internally customized version of the “Assay Explorer” SW package, which provides sigmoidal fitting of the ten-dilution curves for IC50 determination in secondary assay/hit confirmation routines.

Test [3] concerns the target PIM-2 (Homo sapiens (Human), UniProt Q9P1W9). Kind of test: PIM-2 kinase inhibition assay: Dowex technique. The class given is biochemical. The note with it: 4 microM ATP, 5 microM Aktide, 1.5 nM enzyme. The method, then:
Method for PIM-2 Kinase Inhibition Assay: Dowex Technique
The buffer for PIM-2 assay was composed of HEPES 50 mM, at pH 7.5, with 1 mM MgCl2, 1 mM DTT, 3 microM Na3VO4, and 0.2 mg/mL BSA
Full-length human PIM-2 was expressed and purified as described in Fedorov O, et al., PNAS 2007 104, 51, 20523-28.
Enzyme concentration=1.5 nM
Aktide substrate (Chemical Abstract Service Registry Number 324029-01-8)=5 microM
See above: same procedure as described for PIM-1.

One may read the IC50 as the concentration at which inhibition is half-maximal. Low readings indicate inhibition by little substance, high ones a need for much substance.

SMILES strings stand for the structures.

PIM-1, sequence (P11309 whole entry): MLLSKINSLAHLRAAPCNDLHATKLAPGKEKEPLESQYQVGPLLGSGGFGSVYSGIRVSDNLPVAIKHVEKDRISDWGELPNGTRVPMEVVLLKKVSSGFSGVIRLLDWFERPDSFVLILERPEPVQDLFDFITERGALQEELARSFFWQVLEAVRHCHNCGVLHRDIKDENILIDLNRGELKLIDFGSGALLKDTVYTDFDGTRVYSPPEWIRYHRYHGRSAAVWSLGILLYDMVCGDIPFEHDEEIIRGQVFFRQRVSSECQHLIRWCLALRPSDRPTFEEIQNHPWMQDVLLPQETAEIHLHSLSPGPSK
PIM-2, sequence (Q9P1W9 whole entry): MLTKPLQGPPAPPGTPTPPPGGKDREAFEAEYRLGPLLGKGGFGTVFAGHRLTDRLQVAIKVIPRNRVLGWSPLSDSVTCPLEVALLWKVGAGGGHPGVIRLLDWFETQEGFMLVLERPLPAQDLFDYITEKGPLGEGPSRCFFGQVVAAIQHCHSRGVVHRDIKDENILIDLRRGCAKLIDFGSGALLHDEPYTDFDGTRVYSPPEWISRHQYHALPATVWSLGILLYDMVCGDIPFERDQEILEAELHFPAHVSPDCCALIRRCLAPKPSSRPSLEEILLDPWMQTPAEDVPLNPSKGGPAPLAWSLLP
MPS1, sequence (P33981 2-857): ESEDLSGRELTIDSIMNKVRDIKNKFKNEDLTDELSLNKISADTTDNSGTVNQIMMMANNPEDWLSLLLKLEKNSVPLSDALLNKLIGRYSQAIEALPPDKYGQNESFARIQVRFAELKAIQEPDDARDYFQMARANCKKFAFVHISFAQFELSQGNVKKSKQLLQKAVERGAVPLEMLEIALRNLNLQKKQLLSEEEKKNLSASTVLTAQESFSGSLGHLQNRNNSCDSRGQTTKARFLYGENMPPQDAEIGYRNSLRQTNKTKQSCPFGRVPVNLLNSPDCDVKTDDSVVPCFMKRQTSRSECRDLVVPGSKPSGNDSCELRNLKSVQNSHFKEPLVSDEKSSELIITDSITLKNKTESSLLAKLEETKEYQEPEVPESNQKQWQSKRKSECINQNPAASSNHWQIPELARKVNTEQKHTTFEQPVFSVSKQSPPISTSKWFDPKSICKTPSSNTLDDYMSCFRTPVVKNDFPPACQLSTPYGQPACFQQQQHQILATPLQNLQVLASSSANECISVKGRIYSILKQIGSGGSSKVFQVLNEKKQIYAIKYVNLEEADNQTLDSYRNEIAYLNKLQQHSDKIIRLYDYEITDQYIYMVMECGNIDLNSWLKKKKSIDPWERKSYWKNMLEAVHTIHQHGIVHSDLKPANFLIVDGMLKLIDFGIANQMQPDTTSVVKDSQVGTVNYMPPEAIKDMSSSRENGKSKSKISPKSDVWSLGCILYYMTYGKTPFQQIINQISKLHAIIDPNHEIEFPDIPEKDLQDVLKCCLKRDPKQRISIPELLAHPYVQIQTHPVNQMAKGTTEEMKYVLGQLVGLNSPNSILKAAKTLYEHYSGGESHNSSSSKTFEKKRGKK

For the molecule `Cn1c(-c2ccccc2)c(C(N)=O)c2ccc3cnc(N)nc3c21` [compound 4, 2-amino-9-methyl-8-phenyl-9H-pyrrolo[3,2-h]quinazoline-7-carboxamide, reference compound], the IC50 was above 5 µM in test [1], above 5 µM in test [2] and above 10 µM in test [3].
Turning to `CSc1ncc2ccc3c(C(N)=O)cn(C4CCNCC4)c3c2n1` [Compound 35, 2-(methylsulfanyl)-9-(piperidin-4-yl)-9H-pyrrolo[3,2-h]quinazoline-7-carboxamide], the IC50 in test [1] was found to be 4.55 µM; in test [2] it was 0.007 µM; in test [3] it was 0.023 µM.
